For this series, the system named is rodent carcinogenicity bioassays, tumor incidence. As to the kind of experiment: CCRIS carcinogenicity studies. The method, boiled down: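 NCI-built, expert-reviewed records of carcinogenicity and related test outcomes (mutagenicity, tumor promotion/inhibition) compiled from published and report sources, historical span 1985-2011, not updated.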

The text below walks through data of PubChem BioAssay AID1259411 (Chemical Carcinogenesis Research Information System (CCRIS), 2018).

Structures are written as SMILES. The source made the active and inactive calls. The rule behind the calls is not given here.

On to `CCCCCc1cc(O)c2c(c1)OC(C)(C)[C@@H]1CCC(C)=C[C@@H]21`, for which the carcinogen call reads like this: (Species: MOUSE, Strain/Sex: B6C3F1/FEMALE, Route: GAVAGE, Dose: 0, 125, 250, 500 MG/KG BW IN CORN OIL FOR 105-106 WK (STUDY DURATION: 105-106 WK), Dose: 0, 125, 250, 500 MG/KG BW IN CORN OIL FOR 105-106 WK (STUDY DURATION: 105-106 WK), Tumor Site: Type of Lesion: THYROID GLAND: FOLLICULAR CELL ADENOMA) “equivocal”; (Species: MOUSE, Strain/Sex: B6C3F1/MALE, Route: GAVAGE, Dose: 0, 125, 250, 500 MG/KG BW IN CORN OIL FOR 104-105 WK (STUDY DURATION: 104-105 WK), Dose: 0, 125, 250, 500 MG/KG BW IN CORN OIL FOR 104-105 WK (STUDY DURATION: 104-105 WK), Tumor Site: Type of Lesion: THYROID GLAND: FOLLICULAR CELL ADENOMA) “equivocal”; (Species: RAT, Strain/Sex: F344/FEMALE, Route: GAVAGE, Dose: 0, 12.5, 25, 50 MG/KG BW IN CORN OIL FOR 104-105 WK (STUDY DURATION: 104-105 WK), Dose: 0, 12.5, 25, 50 MG/KG BW IN CORN OIL FOR 104-105 WK (STUDY DURATION: 104-105 WK)) “inactive; negative”; (Species: RAT, Strain/Sex: F344/MALE, Route: GAVAGE, Dose: 0, 12.5, 25, 50 MG/KG BW IN CORN OIL FOR 104-105 WK (STUDY DURATION: 104-105 WK), Dose: 0, 12.5, 25, 50 MG/KG BW IN CORN OIL FOR 104-105 WK (STUDY DURATION: 104-105 WK)) “inactive; negative”.
For the molecule `ClCCN(CCCl)c1ccc2ccccc2c1`, the carcinogen call is “active; positive” (Species: HUMAN, Route: ORAL, Tumor Site: Type of Lesion: URINARY BLADDER); “active; positive” (Species: MOUSE, Strain/Sex: STRAIN-A, Route: INTRAPERITONEAL, Dose: 75, 300, 1200, 4800 MG/KG IN 12 DOSES OVER 4 WK, Dose: 75, 300, 1200, 4800 MG/KG IN 12 DOSES OVER 4 WK, Tumor Site: Type of Lesion: LUNG: ADENOMA); “active; positive” (Species: RAT, Route: SUBCUTANEOUS, Dose: 40 MG IN REPEATED DOSES, Tumor Site: Type of Lesion: INJECTION SITE).
Turning to `CNN`, the carcinogen call runs as follows: (Species: DOG, Strain/Sex: BEAGLE/FEMALE, Route: INHALATION, Dose: 0, 0.2, 2 PPM 6 HR/D 5 D/WK FOR 1 YR (STUDY DURATION: 6 YR), Dose: 0, 0.2, 2 PPM 6 HR/D 5 D/WK FOR 1 YR (STUDY DURATION: 6 YR)) “inactive; negative”; (Species: DOG, Strain/Sex: BEAGLE/MALE, Route: INHALATION, Dose: 0, 0.2, 2 PPM 6 HR/D 5 D/WK FOR 1 YR (STUDY DURATION: 6 YR), Dose: 0, 0.2, 2 PPM 6 HR/D 5 D/WK FOR 1 YR (STUDY DURATION: 6 YR)) “inactive; negative”; (Species: HAMSTER, Route: ORAL, Tumor Site: Type of Lesion: LIVER) “active; positive”; (Species: HAMSTER, Strain/Sex: SYRIAN/MALE, Route: INHALATION, Dose: 0, 0.2, 2, 5 PPM 6 HR/D 5 D/WK FOR 1 YR (STUDY DURATION: 1 YR), Dose: 0, 0.2, 2, 5 PPM 6 HR/D 5 D/WK FOR 1 YR (STUDY DURATION: 1 YR), Tumor Site: Type of Lesion: NASAL CAVITY: ADENOMA) “active; positive”; (Species: MOUSE, Route: ORAL, Tumor Site: Type of Lesion: LUNG) “active; positive”; (Species: MOUSE, Strain/Sex: C57BL/FEMALE, Route: INHALATION, Dose: 0, 0.02, 0.2, 2, 5 PPM 6 HR/D 5 D/WK FOR 1 YR (STUDY DURATION: 2 YR), Dose: 0, 0.02, 0.2, 2, 5 PPM 6 HR/D 5 D/WK FOR 1 YR (STUDY DURATION: 2 YR), Tumor Site: Type of Lesion: LUNG: ADENOMA, LIVER: ADENOMA, CARCINOMA, HEMATOPOIETIC SYSTEM: HEMANGIOMA, Tumor Site: Type of Lesion: LUNG: ADENOMA, LIVER: ADENOMA, CARCINOMA, HEMATOPOIETIC SYSTEM: HEMANGIOMA) “active; positive”. Also, the carcinogen call by setting is: (Species: MOUSE, Strain/Sex: SWISS/FEMALE, Route: ORAL, Dose: 0.001% SOLUTION IN DRINKING WATER FOR LIFE (DAILY INTAKE: 0.078 MG) (STUDY DURATION: LIFETIME), Tumor Site: Type of Lesion: LUNG: ADENOMA, ADENOCARCINOMA, HEMATOPOIETIC SYSTEM: MALIGNANT LYMPHOMA, MAMMARY GLAND: ADENOCARCINOMA, Tumor Site: Type of Lesion: LUNG: ADENOMA, ADENOCARCINOMA, HEMATOPOIETIC SYSTEM: MALIGNANT LYMPHOMA, MAMMARY GLAND: ADENOCARCINOMA) “active; positive”; (Species: MOUSE, Strain/Sex: SWISS/MALE, Route: ORAL, Dose: 0.001% SOLUTION IN DRINKING WATER FOR LIFE (DAILY INTAKE: 0.102 MG) (STUDY DURATION: LIFETIME), Tumor Site: Type of Lesion: LUNG: ADENOMA, ADENOCARCINOMA, HEMATOPOIETIC SYSTEM: MALIGNANT LYMPHOMA) “active; positive”; (Species: RAT, Strain/Sex: F344/FEMALE, Route: INHALATION, Dose: 0, 0.02, 0.2, 2, 5 PPM 6 HR/D 5 D/WK FOR 1 YR (STUDY DURATION: 2 YR), Dose: 0, 0.02, 0.2, 2, 5 PPM 6 HR/D 5 D/WK FOR 1 YR (STUDY DURATION: 2 YR)) “inactive; negative”; (Species: RAT, Strain/Sex: F344/MALE, Route: INHALATION, Dose: 0, 0.02, 0.2, 2, 5 PPM 6 HR/D 5 D/WK FOR 1 YR (STUDY DURATION: 2 YR), Dose: 0, 0.02, 0.2, 2, 5 PPM 6 HR/D 5 D/WK FOR 1 YR (STUDY DURATION: 2 YR)) “inactive; negative”.
In the case of `CCCCCCCC/C=C\CCCCCCCC(=O)O`, the carcinogen call is, setting by setting: (Species: MOUSE, Strain/Sex: B6C3F1/FEMALE, Route: ORAL, Dose: 0, 0.25, 1.0% IN DRINKING WATER FOR 96 WK (STUDY DURATION: 104 WK), Dose: 0, 0.25, 1.0% IN DRINKING WATER FOR 96 WK (STUDY DURATION: 104 WK)) “inactive; negative”; (Species: MOUSE, Strain/Sex: B6C3F1/MALE, Route: ORAL, Dose: 0, 0.25, 1.0% IN DRINKING WATER FOR 96 WK (STUDY DURATION: 104 WK), Dose: 0, 0.25, 1.0% IN DRINKING WATER FOR 96 WK (STUDY DURATION: 104 WK)) “inactive; negative”; (Species: RAT, Strain/Sex: F344/FEMALE, Route: ORAL, Dose: 0, 2.5, 5% IN DRINKING WATER FOR 108 WK (STUDY DURATION: 2 YR), Dose: 0, 2.5, 5% IN DRINKING WATER FOR 108 WK (STUDY DURATION: 2 YR)) “inactive; negative”; (Species: RAT, Strain/Sex: F344/MALE, Route: ORAL, Dose: 0, 2.5, 5% IN DRINKING WATER FOR 108 WK (STUDY DURATION: 2 YR), Dose: 0, 2.5, 5% IN DRINKING WATER FOR 108 WK (STUDY DURATION: 2 YR)) “inactive; negative”.
For the molecule `CCCCC/C=N/N(C)C=O`, the carcinogen call (Species: MOUSE, Strain/Sex: SWISS/FEMALE, Route: GAVAGE, Dose: 0, 50, 100 UG/G/BW IN 0.01 ML OF PROPYLENE GLYCOL 1/WK FOR 52 WK (STUDY DURATION: 130 WK), Dose: 0, 50, 100 UG/G/BW IN 0.01 ML OF PROPYLENE GLYCOL 1/WK FOR 52 WK (STUDY DURATION: 130 WK), Tumor Site: Type of Lesion: LUNG: ADENOMA OR ADENOCARCINOMA, LIVER: HEPATOMA OR CARCINOMA) was “active; positive” and the carcinogen call (Species: MOUSE, Strain/Sex: SWISS/MALE, Route: GAVAGE, Dose: 0, 50, 100 UG/G/BW IN 0.01 ML OF PROPYLENE GLYCOL 1/WK FOR 52 WK (STUDY DURATION: 130 WK), Dose: 0, 50, 100 UG/G/BW IN 0.01 ML OF PROPYLENE GLYCOL 1/WK FOR 52 WK (STUDY DURATION: 130 WK), Tumor Site: Type of Lesion: LUNG: ADENOMA AND ADENOCARCINOMA, PREPUTIAL GLAND: SQUAMOUS CELL PAPILLOMA OR SQUAMOUS CELL CARCINOMA OR ADENOMA) was “active; positive”.
As to `CNCCC(Oc1ccc(C(F)(F)F)cc1)c1ccccc1` (configuration not stated), the carcinogen call is “inactive; negative” (Species: MOUSE, Strain/Sex: B6C3F1/FEMALE, Route: ORAL, Dose: 0, 0.001, 0.004, 0.01% IN DIET FOR 24 MO (STUDY DURATION: 24 MO), Dose: 0, 0.001, 0.004, 0.01% IN DIET FOR 24 MO (STUDY DURATION: 24 MO)); “inactive; negative” (Species: MOUSE, Strain/Sex: B6C3F1/MALE, Route: ORAL, Dose: 0, 0.001, 0.004, 0.01% IN DIET FOR 24 MO (STUDY DURATION: 24 MO), Dose: 0, 0.001, 0.004, 0.01% IN DIET FOR 24 MO (STUDY DURATION: 24 MO)); “inactive; negative” (Species: RAT, Strain/Sex: F344/FEMALE, Route: ORAL, Dose: 0, 0.001, 0.0045, 0.02% IN DIET FOR 24 MO (STUDY DURATION: 24 MO), Dose: 0, 0.001, 0.0045, 0.02% IN DIET FOR 24 MO (STUDY DURATION: 24 MO)); “inactive; negative” (Species: RAT, Strain/Sex: F344/MALE, Route: ORAL, Dose: 0, 0.001, 0.0045, 0.02% IN DIET FOR 24 MO (STUDY DURATION: 24 MO), Dose: 0, 0.001, 0.0045, 0.02% IN DIET FOR 24 MO (STUDY DURATION: 24 MO)).
